Literature values as cited in PMC5131364, “Pharmacologic modulation of RORγt translates to efficacy in preclinical and translational models of psoriasis and inflammatory arthritis” (Scientific Reports, 2016).

Legend:
psoriatic skin = conditions: after 12 weeks of treatment ref 70; cited from earlier work
mouse CIA model = system: mouse CIA model; parameters: method as in PMID 24574218; conditions: mouse CIA model ref 49; cited from earlier work

| Compound | IL-17A and IL-17F gene expression in psoriatic skin (psoriatic skin) | joint inflammation and clinical scores (mouse CIA model) |
| --- | --- | --- |
| guselkumab: anti-IL-23 mAb | significant inhibition | – |
| OC(c1ccc(-c2ccc(CN3CCN(Cc4ccncc4)CC3)cc2)c(F)c1)(C(F)(F)F)C(F)(F)F [SR2211] | – | reduce joint inflammation |
